Measurements as given in PubChem BioAssay (NCI).
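Each compound was tested at five concentrations against cells in 96-well plates for 48 hours. At the TGI there is no net growth.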

What was measured:
Test in all cases: growth of human tumour cells (NCI), 48 h
NCI-H226 lung = system: NCI-H226 lung
A498 renal = system: A498 renal
SR leukemia = system: SR leukemia
SNB-19 CNS = system: SNB-19 CNS
SF-268 CNS = system: SF-268 CNS
OVCAR-5 ovarian = system: OVCAR-5 ovarian
HCT-116 colon = system: HCT-116 colon
CAKI-1 renal = system: CAKI-1 renal
KM12 colon = system: KM12 colon
CCRF-CEM leukemia = system: CCRF-CEM leukemia
LOX IMVI melanoma = system: LOX IMVI melanoma
HS 578T breast = system: HS 578T breast
NCI/ADR-RES ovarian = system: NCI/ADR-RES ovarian
MDA-MB-231 breast = system: MDA-MB-231 breast
PC-3 prostate = system: PC-3 prostate

`CCOC(=O)CC(=Nc1cc(C)on1)N(CC)CC` showed a TGI (NCI-H226 lung) of over 100 µM, a TGI (A498 renal) of over 100 µM and a TGI (SR leukemia) of over 100 µM. For the same compound, the TGI (SNB-19 CNS) was over 100 µM, the TGI (SF-268 CNS) was over 100 µM and the TGI (OVCAR-5 ovarian) was over 100 µM. For the same compound, the TGI (HCT-116 colon) was over 100 µM, the TGI (CAKI-1 renal) was over 100 µM and the TGI (KM12 colon) was over 100 µM. It also gave a TGI (CCRF-CEM leukemia) of over 100 µM.
`Cc1ccc(C(=O)NC(C)C)cc1N=NN(C)C` showed a TGI (LOX IMVI melanoma) of over 100 µM, a TGI (SNB-19 CNS) of over 100 µM and a TGI (SF-268 CNS) of over 100 µM. It also gave a TGI (HCT-116 colon) of over 100 µM, a TGI (CAKI-1 renal) of over 100 µM and a TGI (KM12 colon) of over 100 µM.
`O=C(O)C1Cc2ccccc2OC1=O` (configuration not stated) gave a TGI (NCI-H226 lung) of over 100 µM, a TGI (HS 578T breast) of over 100 µM and a TGI (NCI/ADR-RES ovarian) of over 100 µM. It also gave a TGI (MDA-MB-231 breast) of over 100 µM, a TGI (SR leukemia) of over 100 µM and a TGI (SNB-19 CNS) of over 100 µM. For the same compound, the TGI (SF-268 CNS) was over 100 µM, the TGI (OVCAR-5 ovarian) was over 100 µM and the TGI (HCT-116 colon) was over 100 µM. For the same compound, the TGI (PC-3 prostate) was over 100 µM, the TGI (CAKI-1 renal) was over 100 µM and the TGI (KM12 colon) was over 100 µM.
`Cc1ccc(C(=O)/C=C/N2CCN(c3cccc(C(F)(F)F)c3)CC2)cc1` gave a TGI (NCI-H226 lung) of 38.9 µM, a TGI (HS 578T breast) of 51.4 µM and a TGI (A498 renal) of 33.3 µM. For the same compound, the TGI (NCI/ADR-RES ovarian) was 33 µM, the TGI (MDA-MB-231 breast) was 33.4 µM and the TGI (SR leukemia) was 40.3 µM. It also gave a TGI (SNB-19 CNS) of over 100 µM, a TGI (SF-268 CNS) of 36.8 µM and a TGI (OVCAR-5 ovarian) of 39.1 µM. The TGI (HCT-116 colon) was 30.6 µM, the TGI (PC-3 prostate) was over 100 µM and the TGI (CAKI-1 renal) was 37 µM. For the same compound, the TGI (KM12 colon) was 38.1 µM.
For `CCc1c(-c2coc(CC/C(C)=C/c3ccccc3)n2)oc(OC)c(C)c1=O`, the TGI (NCI-H226 lung) was over 100 µM, the TGI (LOX IMVI melanoma) was over 50.9 µM and the TGI (A498 renal) was over 100 µM. The TGI (SR leukemia) was 29.3 µM, the TGI (SNB-19 CNS) was over 86.3 µM and the TGI (SF-268 CNS) was over 100 µM. It also gave a TGI (OVCAR-5 ovarian) of over 100 µM, a TGI (HCT-116 colon) of over 87.8 µM and a TGI (CAKI-1 renal) of over 100 µM. It also gave a TGI (KM12 colon) of over 100 µM and a TGI (CCRF-CEM leukemia) of over 100 µM.
`C=CC[C@@]1(C#N)C[C@H](C[C@]2(C#N)C[C@H](CCl)OC(C)(C)O2)OC(C)(C)O1` gave a TGI (NCI-H226 lung) of over 100 µM, a TGI (LOX IMVI melanoma) of over 100 µM and a TGI (A498 renal) of over 100 µM. It also gave a TGI (SR leukemia) of over 100 µM, a TGI (SNB-19 CNS) of over 100 µM and a TGI (SF-268 CNS) of over 100 µM. The TGI (OVCAR-5 ovarian) was over 100 µM, the TGI (HCT-116 colon) was over 100 µM and the TGI (CAKI-1 renal) was over 100 µM. The TGI (KM12 colon) was over 100 µM and the TGI (CCRF-CEM leukemia) was over 100 µM.
Work on `COc1ccc(C2c3c(-c4ccccc4)nn(-c4ccccc4)c3Oc3ncn(N)c(=N)c32)cc1OC` (configuration not stated) yielded a TGI (NCI-H226 lung) of 7.44 µM, a TGI (HS 578T breast) of 4.37 µM and a TGI (A498 renal) of 26 µM. The TGI (NCI/ADR-RES ovarian) was 6.66 µM, the TGI (MDA-MB-231 breast) was 3.8 µM and the TGI (SR leukemia) was over 26.6 µM. It also gave a TGI (SNB-19 CNS) of 19.9 µM, a TGI (SF-268 CNS) of 10.4 µM and a TGI (OVCAR-5 ovarian) of 13.5 µM. For the same compound, the TGI (HCT-116 colon) was 3.24 µM, the TGI (PC-3 prostate) was 4.08 µM and the TGI (CAKI-1 renal) was 4.15 µM. For the same compound, the TGI (KM12 colon) was 3.33 µM and the TGI (CCRF-CEM leukemia) was over 100 µM.
